{"source": "paper PMC5974751", "about": "“NKp44-Derived Peptide Binds Proliferating Cell Nuclear Antigen and Mediates Tumor Cell Death” (Frontiers in Immunology, 2018)", "key": {"[1]": {"test_system": "B16 melanoma tumor in C57BL/6 mice", "experiment": "In vivo B16 tumor growth", "design": "species or system mouse", "conditions": "R11-NLS-pep8 5 mg/kg IP, 5-FU 30 mg/kg IP, treatment stopped day 22", "protocol": "Seven-week-old male C57BL/6 mice with an average body weight of 23 g were used in the other experiment. B16 cells suspended at a density of 0.5 × 10^6 cells/100 μl, in serum-free DMEM containing 40% Geltrex, were injected subcutaneously in the left dorsal flank, and allowed to develop tumors. After 6 days, mice were randomly divided into three groups, one group was treated with R11-NLS-pep8, at a dose of 5 mg/kg, intraperitoneally (IP), other group with 5-FU, at a dose of 30 mg/kg, (IP) and mice treated with a 1.44% DMSO/150 mM NaCl solution, (IP) served as the vehicle control. Treatment was done three times a week at least for 4 weeks. Each week, tumors size was evaluated by measuring their length (L) and width (W), using a Caliper device and tumor volume (V) was calculated according to the equation: V = LW^2/2. After 3 weeks of treatment, mice were euthanized, and tumors volume and weight were measured.\nFigure 5 Effect of R11-NLS-pep8 on 4T1 and B16 in vivo tumor models. (A) 4T1 cells or (C) B16 cells were injected into the nipple pad or flank of young BALB/C females or C57BL/6 males, respectively (day 0). At day 5, mice were divided to subgroups according to mice weight. […] Tumor volume (mm^3) was measured at days as indicated on graphs mean tumor volume (mm^3), (B) 4T1 and (D) B16 were normalized to vehicle/day to show the effect of treatment on tumor volume per day. […]"}, "[2]": {"test_system": "4T1 breast cancer tumor in BALB/C mice", "experiment": "In vivo 4T1 tumor growth", "design": "species or system mouse", "conditions": "R11-NLS-pep8 5 mg/kg IV, 5-FU 30 mg/kg", "protocol": "Seven-week-old female BALB/C mice with an average body weight of 20 g were used in this experiment. 4T1 cells suspended at a density of 2 × 10^5 cells/50 μl, in serum-free DMEM containing 40% Geltrex, were injected into the left mammary fat pad, and allowed to develop tumors. After 5 days, mice were randomly divided into three groups, one group was treated with R11-NLS-pep8, at a dose of 5 mg/kg, intravenously (IV), other group with 5-FU, at a dose of 30 mg/kg, (IV) and mice treated with a 1.44% DMSO/150 mM NaCl solution, (IV) served as the vehicle control. Treatment was continued following every 2 days at least for 4 weeks. Each week, tumor size was evaluated by measuring their length (L) and width (W), using a Caliper device and tumor volume (V) was calculated according to the equation: V = LW^2/2. After 4 weeks of treatment, mice were euthanized, and tumors volume and weight were measured.\nFigure 5 Effect of R11-NLS-pep8 on 4T1 and B16 in vivo tumor models. (A) 4T1 cells or (C) B16 cells were injected into the nipple pad or flank of young BALB/C females or C57BL/6 males, respectively (day 0). At day 5, mice were divided to subgroups according to mice weight. Treatment was started at day 5 (4T1) or day 6 (B16) and end at day 22. Treatment was administrated every 2 days three times per week; 5-FU was administered intraperitoneally (IP) while R11-NLS-pep8 was administrated intravenously (4T1) or IP (B16). Tumor volume (mm^3) was measured at days as indicated on graphs mean tumor volume (mm^3), (B) 4T1 and (D) B16 were normalized to vehicle/day to show the effect of treatment on tumor volume per day. Statistical analysis was performed on original tumor volume data. Unpaired t-test; one-tail, *p < 0.05."}}}
{"smiles": "O=c1[nH]cc(F)c(=O)[nH]1", "note": "[5-FU, reference compound]", "values": [{"measurement": "tumor growth suppression, day 23", "setting": "[1]", "result": "significantly suppressed B16 growth"}, {"measurement": "tumor growth suppression vs vehicle, significance on days 19 and 23", "setting": "[2]; every 2 days, treatment stopped day 22, unpaired t-test, one-tail", "result": "clear yet non-significant on days 19 and 23"}, {"measurement": "tumor growth suppression vs vehicle, significance on day 28", "setting": "[2]; treatment stopped day 22", "result": "significant on day 28"}]}
